We go through six compounds from patent publication US20160030561A1, “Methods of Treating Pancreatic Cancer” (ONCOMED PHARMACEUTICALS, INC., priority 2013, published 2016).

Entries after “also recorded” stand apart in the source; their conditions may differ. Where a SMILES comes first, the peptide text is derived from it. [ ]: non-standard residue; d: D form. The star is where a group is joined. Nle = CCCC[C@H](N)C(=O)O; Cbz = O=C(OCc1ccccc1)*

One test has as its system medulloblastoma. To be noted: cited from earlier work.
The next test has as its system T-ALL. Conditions: T-ALL animal model; cited from earlier work.
For test [1], the system named is Ras-transformed fibroblasts. To be noted: cited from earlier work.
Test [2] has as its system tumor cell lines that overexpressed NOTCH3. To be noted: tumor cell lines that overexpressed NOTCH3, not those with minimal NOTCH3 expression; cited from earlier work.
Test [3] has as its system melanoma and Kaposi sarcoma. Conditions: cell lines and/or xenografts in mice from melanoma and Kaposi sarcoma; cited from earlier work.
Test [4] relates to pancreatic tumors with high NOTCH3 gene expression. Kind of test: In vivo xenograft assay, panel of pancreatic tumors with high NOTCH3 gene expression. To be noted: treatment with OMP-59R5 and gemcitabine; NOTCH3 cut-off value of 500. More on the design: species or system NOD-SCID mice. On the procedure:
(§1) 20,000 OMP-PN8 tumor cells were injected into NOD-SCID mice. Tumors were allowed to grow 22 days until they had reached an average volume of 125 mm^3. […] Antibodies were dosed every other week at 40 mg/kg. Gemcitabine was dosed at 20 mg/kg weekly.

Test [5] concerns OMP-Lu40 lung (NOTCH3 low expressing) tumor cells. Kind of test: In vivo xenograft assay, OMP-Lu40 lung tumor. Details: species or system NOD-SCID mice. To be noted: in combination with taxol; antibody 20 mg/kg weekly, taxol 10 mg/kg weekly; FIG. 1F. On the procedure:
(§2) Antibodies were dosed weekly at 20 mg/kg. Taxol was dosed at 10 mg/kg weekly.

The test system of the next test is OMP-PN8 tumor cells. Kind of test: In vivo xenograft assay, OMP-PN8 pancreatic tumor. More on the design: species or system NOD-SCID mice. On the procedure: as §1
Tumors were allowed to grow 26 days until they had reached an average volume of 110 mm^3. Tumor bearing mice were randomized into 3 groups (n=9 mice per group) and treated with control antibody, gemcitabine, plus ABRAXANE™ (albumin bound paclitaxel), or the combination of OMP-59R5 anti-NOTCH2/3 antibody and gemcitabine plus ABRAXANE™ OMP-59R5 was dosed every other week at 40 mg/kg. Gemcitabine was dosed at 10 mg/kg weekly and ABRAXANE™ at 30 mg/kg weekly. […] The top and bottom graphs show data obtained from the same experiment on different scales.

The subject of test [6] is OMP-Lu53 lung (NOTCH3 high expressing) tumor cells. Briefly: In vivo xenograft assay, OMP-Lu53 lung tumor. Details: species or system NOD-SCID mice. To be noted: in combination with taxol; antibody 40 mg/kg every other week, taxol 10 mg/kg weekly; FIG. 1G. As to the method: Antibodies were dosed every other week at 40 mg/kg. Taxol was dosed at 10 mg/kg weekly.
Test [7] has as its system OMP-PN17 pancreatic tumor. Kind of test: In vivo xenograft assay, OMP-PN17 pancreatic tumor. More on the design: species or system NOD-SCID mice. Conditions: FIG. 1B. On the procedure: as §1
The ability of anti-NOTCH2/3 OMP-59R5 antibody to inhibit the in vivo growth of OMP-PN17 pancreatic tumor was determined using substantially identical methods.

In test [8] the test system is UM-T1 breast (NOTCH3 high expressing) tumor cells. Kind of test: In vivo xenograft assay, UM-T1 breast tumor. More on the design: species or system NOD-SCID mice. To be noted: FIG. 1E. As to the method: Tumors were allowed to grow 28 days until they had reached an average volume of 120 mm^3. […] Antibodies were dosed weekly at 20 mg/kg. Taxol was dosed at 10 mg/kg weekly.

Test [9] concerns breast or lung tumors with high NOTCH3 gene expression. Kind of test: In vivo xenograft assay, panel of breast or lung tumors with high NOTCH3 gene expression. Details: species or system NOD-SCID mice. Conditions: OMP-59R5 in combination with a chemotherapeutic agent (taxol); NOTCH3 cut-off value of 500. As to the method:
as §2

A further test concerns OMP-PN11 tumor cells. Kind of test: In vivo xenograft assay, OMP-PN11 pancreatic tumor. Details: species or system NOD-SCID mice. To be noted: FIG. 1C. As to the method:
50,000 OMP-PN11 tumor cells were injected into NOD-SCID mice. Tumors were allowed to grow 21 days until they had reached an average volume of 120 mm^3. […] Antibodies were dosed every other week at 40 mg/kg. Gemcitabine was dosed at 20 mg/kg weekly.

For test [10], the system named is UM-PE13 breast (NOTCH3 high expressing) tumor cells. Briefly: In vivo xenograft assay, UM-PE13 breast tumor. More on the design: species or system NOD-SCID mice. To be noted: FIG. 1D. On the procedure:
as §2

Another test has as its system intestinal adenomas. Conditions: intestinal adenomas in Apc−/− (min) mice; cited from earlier work.
The mark [11] stands for this setting: as a single agent, 20 mg/kg weekly.
Where [12] appears, read: in combination with taxol, antibody 20 mg/kg weekly, taxol 10 mg/kg weekly.

In the case of `C[C@H](NC(=O)Cc1cc(F)cc(F)c1)C(=O)N[C@H](C(=O)OC(C)(C)C)c1ccccc1` [DAPT, N-[N-(3,5-difluorophenacetyl)-L-alanyl]-S-phenylglycine t-butyl ester], the Medulloblastoma growth entry with medulloblastoma is given as “marked reduction”. Moreover, the “Cell cycle arrest and apoptosis” value in the test with T-ALL is “induced G0-G1 cell cycle arrest and apoptosis”.
With `CCC(C)C(NC(=O)OCc1ccccc1)C(=O)NC(C=O)CC(C)C` (stereo not drawn) [IL-X, cbz-IL-CHO] (Cbz-Ile-Leu-aldehyde; configuration not given here), the Antineoplastic activity entry in [1] was “NOTCH1-dependent antineoplastic activity”.
In the case of `CCCC[C@@H](C=O)NC(=O)[C@H](CC(C)C)NC(=O)[C@H](CC(C)C)NC(=O)OCc1ccccc1` [z-Leu-leu-Nle-CHO] (Cbz-Leu-Leu-[Nle]-aldehyde), the “Cell proliferation and apoptosis” value in test [2] is “suppression of cell proliferation and induction of apoptosis”. Besides, the Tumor growth entry in test [3] is “suppress tumor growth”.
Turning to “OMP-59R5 + gemcitabine: combination treatment with OMP-59R5 anti-NOTCH2/3 antibody and gemcitabine”, the “Pancreatic tumors with high NOTCH3 gene expression responsive in vivo” value in [4] was 9 out of the 10.
On to “OMP-59R5: 59R5 IgG2 anti-NOTCH2/3 antibody, heavy and light chain of SEQ ID NO:30 and SEQ ID NO:33; ATCC PTA-10170”, for which the OMP-Lu40 tumor growth entry in test [5] was “strongly inhibited”. In addition, the OMP-PN8 tumor growth entry in the test with OMP-PN8 tumor cells (as a single agent, 40 mg/kg every other week, FIG. 1A) is reported as “strongly inhibited”; with OMP-PN8 tumor cells (in combination with gemcitabine plus ABRAXANE, OMP-59R5 40 mg/kg every other week, gemcitabine 10 mg/kg weekly, ABRAXANE 30 mg/kg weekly, FIG. 9) it was “strongly inhibited; also recorded: active”; in the test on OMP-PN8 tumor cells (in combination with gemcitabine, antibody 40 mg/kg every other week, gemcitabine 20 mg/kg weekly, FIG. 1A), “strongly inhibited”. In addition, the “Activity on OMP-PN8 tumor growth compared with gemcitabine plus ABRAXANE alone” value with OMP-PN8 tumor cells (in combination with gemcitabine plus ABRAXANE, FIG. 9) is “more active”. The OMP-Lu53 tumor growth entry in test [6] is recorded as “no effect”. In addition, the OMP-PN17 tumor growth entry in [7] (as a single agent) and in [7] (in combination with gemcitabine) was “strongly inhibited” in each case. In addition, the UM-T1 tumor growth entry in test [8] (setting [11]) and in [8] (setting [12]) was “no effect” throughout. Further, the “Breast or lung tumors with high NOTCH3 gene expression responsive” value in test [9] was 5 out of 14. The OMP-PN11 tumor growth entry with OMP-PN11 tumor cells (as a single agent, 40 mg/kg every other week) is “no effect”; in the test on OMP-PN11 tumor cells (in combination with gemcitabine, antibody 40 mg/kg every other week, gemcitabine 20 mg/kg weekly), “no effect”. Moreover, the UM-PE13 tumor growth entry in test [10] (setting [11]) and in [10] (setting [12]) was “strongly inhibited” each time.
Regarding dibenzazepine, the “Epithelial cell proliferation and goblet cell differentiation” value in the test with intestinal adenomas was “inhibit epithelial cell proliferation and induce goblet cell differentiation”.
